Here are results for 21 compounds from ChEMBL document CHEMBL5230110, “FabI (enoyl acyl carrier protein reductase) - A potential broad spectrum therapeutic target and its inhibitors” (Eur J Med Chem, 2020).

≈ marks a conversion by molar mass, not a printed value.

In general, MIC refers to the lowest concentration that inhibits growth of the organism. By IC50 is commonly meant the concentration at which inhibition is half-maximal. Usually EC50 stands for the concentration at which the effect is half-maximal. Usually MBC stands for the smallest concentration meeting the test's criterion for killing. Usually MIC90 stands for the lowest concentration that inhibits either 90% of growth or 90% of the strains tested, depending on the study.

In assay [1] the test system is Mycobacterium tuberculosis. The assay can be described thus: Antimycobacterial activity against Mycobacterium tuberculosis H37Rv. In kind it is functional.
Assay [2] is described as follows: Inhibition of Pseudomonas fluorescens FabG assessed as inhibition.
Assay [3] can be described thus: Inhibition of Pseudomonas fluorescens FabI assessed as inhibition.
A short description of assay [4]: Inhibition of Plasmodium falciparum NF54 HDAC using extract measured after 60 mins by fluorescence assay.
Assay [5] has as its target T1, Enoyl-[acyl-carrier-protein] reductase [NADPH] FabI (Staphylococcus aureus, UniProt Q6GI75).
T1 sequence (Q6GI75 whole entry): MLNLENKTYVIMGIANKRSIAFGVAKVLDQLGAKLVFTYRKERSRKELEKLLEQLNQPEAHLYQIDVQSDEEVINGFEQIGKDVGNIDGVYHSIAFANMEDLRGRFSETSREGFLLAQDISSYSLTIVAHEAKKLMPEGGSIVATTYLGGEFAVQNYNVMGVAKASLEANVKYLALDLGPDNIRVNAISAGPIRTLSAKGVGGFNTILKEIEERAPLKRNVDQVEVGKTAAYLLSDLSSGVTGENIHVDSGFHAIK
The assay can be described thus: Inhibition of Staphylococcus aureus ATCC 29213 FabI in the presence of NADH using crotonyl CoA as substrate by measuring NADH consumption rate.

In assay [6] the test system is Staphylococcus aureus. The assay can be described thus: Antibacterial activity against quinolone-resistant Staphylococcus aureus. In kind it is functional.
The subject of assay [7] is Escherichia coli. The assay can be described thus: Antibacterial activity against Escherichia coli ATCC 8730 assessed as inhibition of bacterial growth. In kind it is functional.
The subject of the next assay is Bacillus subtilis. The assay can be described thus: Antibacterial activity against Bacillus subtilis ATCC 60511 assessed as reduction in bacterial growth at 25 ug/ml measured after 24 hrs serial dilution method. In kind it is functional. Conditions: dose 25 µg/ml.
Assay [8] deals with Staphylococcus aureus. The assay can be described thus: Antibacterial activity against Staphylococcus aureus ATCC 11632 assessed as reduction in bacterial growth at 25 ug/ml measured after 24 hrs serial dilution method. The assay is classed as functional. The note with it: dose 25 µg/ml.
The subject of a further assay is Vibrio cholerae. The assay can be described thus: Antibacterial activity against Vibrio cholerae. In kind it is functional.
For the next assay, the system named is HeLa. The assay can be described thus: Cytotoxicity against human HeLa cells assessed as inhibition of cell growth incubated for 48 hrs by CCK8 assay. In kind it is functional, cell-based. (In general: Tetrazolium assays rely on reduction of a dye to a coloured formazan, in cell work by metabolically active cells.)
For assay [9], the system named is Staphylococcus aureus. The assay can be described thus: Antibacterial activity against methicillin resistant Staphylococcus aureus assessed as reduction in bacterial growth incubated for 12 hrs by microdilution method. The assay is classed as functional. Background: Dilution methods test growth across graded concentrations, often in twofold steps.
Assay [10] is described as follows: Inhibition of Bacillus anthracis enoyl ACP reductase assessed as inhibition of bacterial growth.
In a further assay the test system is Bacillus anthracis. The assay can be described thus: Antibacterial activity against Bacillus anthracis assessed as reduction in bacterial growth measured after 24 hrs by broth microdilution method. In kind it is functional.
Assay [11] relates to Staphylococcus aureus. The assay can be described thus: Antibacterial activity against methicillin-sensitive Staphylococcus aureus assessed as reduction in bacterial growth incubated for 12 hrs by microdilution method. The assay is classed as functional.
The nature of assay [12]: Cytotoxicity against mouse MH-S cells. In kind it is functional, cell-based.
Assay [13] deals with Staphylococcus aureus. The assay can be described thus: Bactericidal activity against methicillin-resistant Staphylococcus aureus measured after 24 hrs by sub-culturing. The assay is classed as functional.
Assay [14] in a line: Inhibition of Francisella tularensis FabI by addition of crotonyl-CoA as substrate preincubated for 10 mins followed by substrate addition in presence of NAD by spectrophotometer.
Assay [15] concerns Staphylococcus aureus. The assay can be described thus: Antibacterial activity against Methicillin-resistant Staphylococcus aureus ATCC 33592 assessed as bacterial growth inhibition measured after 24 hrs by broth dilution method. The assay is classed as functional.
The test system of assay [16] is Staphylococcus aureus. The assay can be described thus: Antibacterial activity against Staphylococcus aureus ATCC 29213 assessed as bacterial growth inhibition incubated for 24 hrs by broth dilution method. The assay is classed as functional.
The test system of assay [17] is Staphylococcus aureus. The assay can be described thus: Antibacterial activity against Methicillin-resistant Staphylococcus aureus N315 assessed as reduction in bacterial growth. In kind it is functional.
The target in assay [18] is T1, Enoyl-[acyl-carrier-protein] reductase [NADPH] FabI. The assay can be described thus: Inhibition of Staphylococcus aureus FabI in the presence of NADH using crotonyl CoA as substrate by measuring NADH consumption rate.
The target in assay [19] is T2, Enoyl-[acyl-carrier-protein] reductase [NADH] FabI (Escherichia coli K-12, UniProt P0AEK4).
T2 sequence (P0AEK4 whole entry): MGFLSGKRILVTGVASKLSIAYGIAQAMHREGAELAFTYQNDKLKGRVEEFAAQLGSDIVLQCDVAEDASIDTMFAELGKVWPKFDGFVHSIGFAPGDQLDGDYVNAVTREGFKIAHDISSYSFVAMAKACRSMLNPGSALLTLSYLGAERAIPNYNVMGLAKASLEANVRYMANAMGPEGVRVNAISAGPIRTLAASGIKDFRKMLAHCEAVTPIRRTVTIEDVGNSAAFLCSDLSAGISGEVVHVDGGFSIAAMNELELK
The assay can be described thus: Inhibition of Escherichia coli FabI in the presence of NADH using crotonyl CoA as substrate by measuring NADH consumption rate.

The subject of assay [20] is Escherichia coli. The assay can be described thus: Antibacterial activity against Escherichia coli assessed as bacterial growth inhibition at 50 uM measured after 24 hrs by 96-wellplate reader assay method. The assay is classed as functional.
The test system of assay [21] is Staphylococcus aureus. The assay can be described thus: Antibacterial activity against methicillin-resistant Staphylococcus aureus ATCC 4330 assessed as reduction in bacterial growth. In kind it is functional.
The subject of assay [22] is Staphylococcus aureus. The assay can be described thus: Antibacterial activity against Methicillin-sensitive Staphylococcus aureus ATCC 4330 assessed as reduction in bacterial growth. The assay is classed as functional.
For assay [23], the system named is Staphylococcus aureus. The assay can be described thus: Antibacterial activity against Staphylococcus aureus assessed as inhibition of bacterial growth measured after 24 hrs. The assay is classed as functional.
A further assay relates to Moraxella catarrhalis. The assay can be described thus: Antibacterial activity against Moraxella catarrhalis assessed as inhibition in bacterial growth measured after 24 hrs by broth microdilution method. In kind it is functional.
The test system of a further assay is Acinetobacter baumannii. The assay can be described thus: Antibacterial activity against Acinetobacter baumannii W41979. The assay is classed as functional.
The next assay deals with Klebsiella pneumoniae. The assay can be described thus: Antibacterial activity against Klebsiella pneumoniae BAA-1705. The assay is classed as functional.
For assay [24], the system named is Escherichia coli. The assay can be described thus: Antibacterial activity against Escherichia coli BAA 2340 assessed as reduction in microbial growth inhibition. The assay is classed as functional.

The compound `COc1nc2ccc(Br)cc2cc1/C=N/NC(=O)c1ccc(-n2cccc2)cc1` returned an MIC in assay [1] of 1.6 µg/mL (≈ 3.56 µM).
Turning to `C=C1C(=O)OC[C@H]1C(O)/C=C(\C)CC(=O)C=C(C)C` (some centres undefined), the figures for the IC50 in assay [2], in assay [3] and in [4] were 75 µg/mL (≈ 284 µM), 20 µg/mL (≈ 75.7 µM) and 20 µg/mL (≈ 75.7 µM), respectively.
Regarding `CN1C(=O)[C@@H](c2cc(Cl)c(O)c(Cl)c2)NC(=O)[C@@H]2NC(=O)[C@@H](c3cc(Cl)c(O)c(Cl)c3)NC(=O)[C@H](NC(=O)C(=O)c3cc(Cl)c(O)c(Cl)c3)Cc3c[nH]c4c(cccc34)-c3cc2cc(c3O)Oc2ccc(cc2)C[C@H]1C(=O)N[C@@H](C(=O)O)c1ccc(O)cc1` [CHLOROPEPTIN], the IC50 in [5] came to 300 nM. The MIC in the assay with Staphylococcus aureus [6] was 4 µg/mL (≈ 3.01 µM).
`COc1nc2ccc(Br)cc2cc1C1CC(=O)N1NC(=O)c1ccncc1` (centres undefined): the MIC with Escherichia coli [7] was 0.4 µg/mL (≈ 0.936 µM); in the assay on Bacillus subtilis, 3.12 µg/mL (≈ 7.31 µM); in the assay with Staphylococcus aureus [8], 3.12 µg/mL (≈ 7.31 µM); against Vibrio cholerae it was 0.4 µg/mL (≈ 0.936 µM).
As for `O=[N+]([O-])c1ccc(Oc2ccc(Cl)cc2O)c(Cl)c1`, the EC50 with HeLa is 29.3 µg/mL (≈ 97.6 µM); in assay [12], 9.9 µg/mL (≈ 33 µM). The results for the MIC with Staphylococcus aureus [9], in the assay with Bacillus anthracis and in the assay on Staphylococcus aureus [11] were 0.3 µg/mL (≈ 1 µM), < 0.1 µg/mL and 0.1 µg/mL (≈ 0.333 µM), respectively. Further, in [10], the IC50 is 300 nM. The compound further came in with an MBC against Staphylococcus aureus [13] of 0.5 µg/mL (≈ 1.67 µM).
In the case of `CC(c1ccc(Cl)c(Cl)c1)n1cnc2cc3c(cc21)CCC3` (centres undefined), the IC50 in [14] came out at 18 nM. Moreover, the MIC in the assay with Staphylococcus aureus [15] turned out to be 6.3 µg/mL (≈ 19 µM); in the assay with Staphylococcus aureus [16], 5.5 µg/mL (≈ 16.6 µM).
For `Cc1c(N)cccc1Cn1ccc(OCCc2cccs2)cc1=O` [CG-400549], in the assay with Staphylococcus aureus [15], the MIC was found to be 0.25 µg/mL (≈ 0.734 µM). For the same compound, the MIC90 in the assay with Staphylococcus aureus [17] was determined as 0.25 µg/mL (≈ 0.734 µM).
On to `O=C(NN1C(=O)CC1c1cc2cc(Br)ccc2nc1Cl)c1ccncc1` (centres undefined), for which the MIC in the assay on Escherichia coli [7] amounted to 0.4 µg/mL (≈ 0.927 µM); in the assay on Bacillus subtilis, 12.5 µg/mL (≈ 29 µM); in the assay on Staphylococcus aureus [8], 12.5 µg/mL (≈ 29 µM); against Vibrio cholerae, 0.4 µg/mL (≈ 0.927 µM).
Take `COc1ccc(-c2cn(Cc3ccc(C)cc3)cn2)cc1`: the IC50 in assay [18] stood at 250 nM; in [19], 6440 nM.
For the compound `COc1nc2ccc(C)cc2cc1/C=N/NC(=O)c1ccc(-n2cccc2)cc1`, the MIC in [1] turned out to be 1.6 µg/mL (≈ 4.16 µM).
For the compound `Oc1ccccc1Oc1ccccc1`, the MIC in the assay with Escherichia coli [20] stood at 3.7 µg/mL (≈ 19.9 µM).
As to `O=c1ccn(Cc2cccc(Br)c2)cc1C(O)c1c(Cl)cccc1Cl` (centres undefined), in assay [19], the IC50 stood at 430 nM.
In the case of `Cc1c(CN(C)C(=O)/C=C/c2cnc3c(c2)C(C)(C)C(=O)N3)oc2ccccc12`, the MIC with Staphylococcus aureus [21] and in the assay on Staphylococcus aureus [22] was 0.015 µg/mL (≈ 0.0385 µM) in each case.
In the case of `Cc1ccc(Cn2cnc(-c3ccsc3)c2)cc1`, the 50% inhibitory concentration (IC50) in assay [18] is 360 nM; in [19], 3920 nM.
Consider `Cc1ccc(Oc2ccccc2)c(O)c1`, for which the MIC in the assay with Escherichia coli [20] was found to be 1 µg/mL (≈ 4.99 µM).
As to `O=C(c1ccc(Cl)cc1O)N1CCc2c(n(Cc3ccc(O)cc3)c3ccccc23)C1`, the minimum inhibitory concentration (MIC) in the assay with Staphylococcus aureus [23] amounted to 1 µg/mL (≈ 2.31 µM); with Moraxella catarrhalis, 2 µg/mL (≈ 4.62 µM).
With `Cc1c(CN(C)C(=O)/C=C/c2cnc3c(c2)CC(N)C(=O)N3)oc2ccccc12.Cl` (centres undefined), the MIC in the assay with Acinetobacter baumannii came out at 4 µg/mL; with Klebsiella pneumoniae, 8 µg/mL; with Escherichia coli [24] it was 4 µg/mL; in the assay on Staphylococcus aureus [16], 0.031 µg/mL.
`CC(C)CCCC/C=C\CCCCCCCC(=O)O`: the IC50 in [18] was 16300 nM.
For `CN1C(=O)[C@@H](c2cc(Cl)c(O)c(Cl)c2)NC(=O)[C@@H]2NC(=O)[C@@H](c3cc(Cl)c(O)c(Cl)c3)NC(=O)[C@H](NC(=O)C(=O)c3cc(Cl)c(O)c(Cl)c3)Cc3cc4ccc(cc4[nH]3)-c3cc2cc(c3O)Oc2ccc(cc2)C[C@H]1C(=O)N[C@@H](C(=O)O)c1ccc(O)cc1`, in [5], the half-maximal inhibitory concentration (IC50) is 500 nM. The compound also showed an MIC in the assay with Staphylococcus aureus [6] of 2 µg/mL (≈ 1.51 µM).
Consider `COc1ccc(Cn2cnc3cc4c(cc32)CCC4)cc1C`, for which the IC50 in [14] is 5 nM. The MIC in the assay with Staphylococcus aureus [15] and with Staphylococcus aureus [16] was > 12.5 µg/mL each time.
Regarding `CCCCCCCCCCCCCCCCc1cc(OC2OC(CO)C(O)C(O)C2O)cc(O)c1C(=O)Oc1cc(C)c(C(=O)O)c(O)c1` (centres undefined), the IC50 in assay [5] is 3200 nM.
